Experiments:
Type in all cases: binding
PI3K delta = target: T1, PI3K delta (Homo sapiens, UniProt O00329); assay: Drug pulldown with immobilized phenylthiazole ligand 1, Western blot detection; conditions: MOLT-4 cell lysate
T1 construct: endogenous in cells; host or cells: MOLT-4 (ATCC CRL-1582) cell lysate
Experimental: (§1) As biological material a cell lysate prepared from MOLT-4 cells was used. The drug pulldown experiment was performed as described in Example 2 with lysate samples containing 50 mg of protein. Captured proteins were eluted with DMSO containing buffer (lane 1), 100 μM of free phenylthiazole ligand 1 or SDS sample buffer (lane 3). The eluted samples were separated on SDS-polyacrylamide gels and transferred to membranes. The blots were first incubated with specific antibodies directed against PI3K gamma (FIG. 2A) and PI3K delta (FIG. 2B). Secondary detection antibodies labeled with fluorescent dyes for detection were used with the Odyssey infrared imaging system. Lane 1: DMSO elution control; lane 2: elution with 100 μM free phenylthiazole ligand 1; lane 3: SDS elution. […]
(§2) For Western blot analysis bound proteins were eluted from the affinity matrix and subsequently separated by SDS-Polyacrylamide gel elecrophoresis. PI3K gamma and PI3K delta were detected with specific antibodies (FIG. 2).
(§3) MOLT-4 cells were homogenized in a Potter S homogenizer in lysis buffer: 50 mM Tris-HCl, 0.8% NP40, 5% glycerol, 150 mM NaCl, 1.5 mM MgCl2, 25 mM NaF, 1 mM sodium vanadate, 1 mM DTT, pH 7.5. […] The supernatant was transferred again to a fresh 50 ml falcon tube, the protein concentration was determined by a Bradford assay (BioRad) and samples containing 50 mg of protein per aliquot were prepared. […]

PI3K gamma = target: T2, PI3K gamma (Homo sapiens, UniProt P48736); assay: as above; conditions: MOLT-4 cell lysate
T2 construct: PI3K gamma protein was captured by immobilized phenylthiazole ligand 1 from MOLT-4 cell lysate; endogenous in cells; host or cells: MOLT-4 (ATCC CRL-1582) cell lysate
T2 sequence (P48736 whole entry): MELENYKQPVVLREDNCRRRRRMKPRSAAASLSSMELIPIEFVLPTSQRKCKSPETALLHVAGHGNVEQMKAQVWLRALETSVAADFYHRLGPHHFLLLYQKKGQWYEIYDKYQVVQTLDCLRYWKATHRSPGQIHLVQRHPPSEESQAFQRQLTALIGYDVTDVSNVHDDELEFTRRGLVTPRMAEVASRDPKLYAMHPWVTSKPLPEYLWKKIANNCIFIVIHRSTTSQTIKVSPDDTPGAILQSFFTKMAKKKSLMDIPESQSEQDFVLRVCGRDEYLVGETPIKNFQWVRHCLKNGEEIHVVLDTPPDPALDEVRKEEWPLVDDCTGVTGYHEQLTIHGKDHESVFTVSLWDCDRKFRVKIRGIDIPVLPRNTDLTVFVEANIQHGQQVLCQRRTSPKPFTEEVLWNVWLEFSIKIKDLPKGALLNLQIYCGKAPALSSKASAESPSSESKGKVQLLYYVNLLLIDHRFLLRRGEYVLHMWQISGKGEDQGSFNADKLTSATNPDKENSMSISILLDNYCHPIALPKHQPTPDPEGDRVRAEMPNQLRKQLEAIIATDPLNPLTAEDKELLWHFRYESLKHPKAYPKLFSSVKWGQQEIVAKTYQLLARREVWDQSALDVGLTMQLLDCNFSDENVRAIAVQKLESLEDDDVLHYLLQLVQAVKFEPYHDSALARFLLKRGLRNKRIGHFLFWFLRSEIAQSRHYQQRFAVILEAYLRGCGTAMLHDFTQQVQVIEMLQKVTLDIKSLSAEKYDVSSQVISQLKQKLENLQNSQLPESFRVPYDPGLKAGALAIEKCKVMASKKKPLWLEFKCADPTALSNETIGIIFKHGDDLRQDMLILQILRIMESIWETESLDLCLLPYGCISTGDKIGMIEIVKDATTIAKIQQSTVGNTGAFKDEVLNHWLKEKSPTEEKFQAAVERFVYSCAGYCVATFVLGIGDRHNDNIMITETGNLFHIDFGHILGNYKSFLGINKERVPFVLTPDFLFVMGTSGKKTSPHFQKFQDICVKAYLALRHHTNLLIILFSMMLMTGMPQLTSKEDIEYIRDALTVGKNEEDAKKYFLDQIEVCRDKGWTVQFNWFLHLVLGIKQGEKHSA
Experimental: as §1, §2, §3

ATM = target: T3, ATM (Homo sapiens, UniProt Q13315); assay: Drug pulldown with immobilized phenylthiazole ligand 1, mass spectrometry analysis; conditions: 1:1 mixture of Jurkat and Ramos cell lysate
T3 construct: with a 1:1 mixture of Jurkat and Ramos cell lysate sample containing 50 mg of protein; endogenous in cells; host or cells: 1:1 mixture of Jurkat and Ramos cell lysates
From the text: (§4) A protein gel after staining with Coomassie blue is shown. The indicated gel areas were cut out as gel slices and proteins were subjected to analysis by mass spectrometry. […] Proteins bound to immobilized phenylthiazole ligand 1 were eluted with SDS sample buffer and separated by SDS-polyacrylamide gel electrophoresis (SDS-PAGE). The following proteins were identified in this experiment: DNA-PK, ATM, and mTOR. […] Beads were collected, transfered to Mobicol-columns (MoBiTech 10055) and washed with 10 ml lysis buffer containing 0.5% NP40 detergent, followed by 5 ml lysis buffer with 0.25% detergent. […] Proteins were then separated by SDS-Polyacrylamide electrophoresis (SDS-PAGE). Gel-separated proteins were reduced, alkylated and digested in gel essentially following the procedure described by Shevchenko et al., 1996, Anal. Chem. 68:850-858. Briefly, gel-separated proteins were excised from the gel using a clean scalpel, reduced using 10 mM DTT (in 5 mM ammonium bicarbonate, 54° C., 45 min) and subsequently alkylated with 55 mM iodoacetamid (in 5 mM ammonium bicarbonate) at room temperature in the dark (30 minutes). Reduced and alkylated proteins were digested in gel with porcine trypsin (Promega) at a protease concentration of 12.5 ng/μl in 5 mM ammonium bicarbonate. Digestion was allowed to proceed for 4 hours at 37° C. and the reaction was subsequently stopped using 5 μl 5% formic acid. Gel plugs were extracted twice with 20 μl 1% TFA and pooled with acidified digest supernatants. […] Peptide samples were injected into a nano LC system (CapLC, Waters or Ultimate, Dionex) which was directly coupled either to a quadrupole TOF (QTOF2, QTOF Ultima, QTOF Micro, Micromass) or ion trap (LCQ Deca XP) mass spectrometer. […] Proteins were identified by correlating the measured peptide mass and fragmentation data with the same data computed from the entries in the database using the software tool Mascot (Matrix Science; Perkins et al., 1999. Probability-based protein identification by searching sequence databases using mass spectrometry data. Electrophoresis 20, 3551-3567). […]

DNA-PK = target: T4, DNA-PK (Homo sapiens, UniProt P78527); assay: as above; conditions: 1:1 mixture of Jurkat and Ramos cell lysate
T4 construct: with a 1:1 mixture of Jurkat and Ramos cell lysate sample containing 50 mg of protein; endogenous in cells; host or cells: 1:1 mixture of Jurkat and Ramos cell lysates
From the text: as §4

mTOR = target: T5, mTOR (Homo sapiens, UniProt P42345); assay: as above; conditions: 1:1 mixture of Jurkat and Ramos cell lysate
T5 construct: with a 1:1 mixture of Jurkat and Ramos cell lysate sample containing 50 mg of protein; endogenous in cells; host or cells: 1:1 mixture of Jurkat and Ramos cell lysates
From the text: as §4

T1 sequence (O00329 whole entry): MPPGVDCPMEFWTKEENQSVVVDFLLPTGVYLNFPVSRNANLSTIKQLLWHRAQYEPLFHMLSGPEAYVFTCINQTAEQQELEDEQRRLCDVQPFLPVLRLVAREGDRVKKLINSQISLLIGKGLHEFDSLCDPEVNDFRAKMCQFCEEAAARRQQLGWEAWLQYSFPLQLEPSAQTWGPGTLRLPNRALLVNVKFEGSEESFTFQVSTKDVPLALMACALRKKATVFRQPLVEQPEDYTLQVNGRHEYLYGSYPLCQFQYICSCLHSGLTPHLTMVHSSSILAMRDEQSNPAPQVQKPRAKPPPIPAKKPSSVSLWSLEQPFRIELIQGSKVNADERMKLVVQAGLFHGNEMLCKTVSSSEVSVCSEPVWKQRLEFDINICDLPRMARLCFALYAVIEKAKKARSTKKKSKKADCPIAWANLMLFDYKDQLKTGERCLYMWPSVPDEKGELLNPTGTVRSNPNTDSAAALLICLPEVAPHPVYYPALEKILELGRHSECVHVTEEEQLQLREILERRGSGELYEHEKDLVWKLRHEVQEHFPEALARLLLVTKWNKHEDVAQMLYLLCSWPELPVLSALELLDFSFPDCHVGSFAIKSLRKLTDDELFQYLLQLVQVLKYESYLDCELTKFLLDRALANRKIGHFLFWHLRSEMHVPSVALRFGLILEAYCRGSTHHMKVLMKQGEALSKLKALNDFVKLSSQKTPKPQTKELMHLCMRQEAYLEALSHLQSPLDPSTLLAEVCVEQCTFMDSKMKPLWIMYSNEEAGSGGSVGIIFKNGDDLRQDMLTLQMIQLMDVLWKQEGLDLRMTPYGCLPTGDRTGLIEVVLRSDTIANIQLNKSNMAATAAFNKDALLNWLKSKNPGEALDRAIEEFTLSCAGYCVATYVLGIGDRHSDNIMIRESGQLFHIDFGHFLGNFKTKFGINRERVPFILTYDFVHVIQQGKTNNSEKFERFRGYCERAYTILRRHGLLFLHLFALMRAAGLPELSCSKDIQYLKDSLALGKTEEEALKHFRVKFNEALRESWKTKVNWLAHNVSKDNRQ
T1 sequence (P27986 whole entry partner): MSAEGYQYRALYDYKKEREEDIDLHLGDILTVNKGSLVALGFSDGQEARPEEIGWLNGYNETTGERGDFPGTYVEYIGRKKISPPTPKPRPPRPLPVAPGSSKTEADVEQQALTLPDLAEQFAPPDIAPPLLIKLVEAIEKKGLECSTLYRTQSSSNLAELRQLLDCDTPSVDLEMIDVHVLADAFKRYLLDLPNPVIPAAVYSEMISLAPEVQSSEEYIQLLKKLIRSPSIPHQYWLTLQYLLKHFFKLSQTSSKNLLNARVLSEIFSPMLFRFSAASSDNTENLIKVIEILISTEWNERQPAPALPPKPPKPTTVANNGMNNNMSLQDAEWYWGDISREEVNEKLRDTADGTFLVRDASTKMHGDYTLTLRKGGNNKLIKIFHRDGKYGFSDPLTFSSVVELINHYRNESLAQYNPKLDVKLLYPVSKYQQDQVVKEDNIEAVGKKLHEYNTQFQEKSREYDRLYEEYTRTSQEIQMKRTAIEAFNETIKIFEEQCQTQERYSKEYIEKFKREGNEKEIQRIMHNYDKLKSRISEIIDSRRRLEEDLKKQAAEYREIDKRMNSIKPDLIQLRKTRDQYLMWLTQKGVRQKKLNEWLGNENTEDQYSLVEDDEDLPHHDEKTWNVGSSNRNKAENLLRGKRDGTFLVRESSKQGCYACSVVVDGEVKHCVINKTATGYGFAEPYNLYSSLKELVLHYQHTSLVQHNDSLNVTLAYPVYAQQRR

- capture (pulldown) of PI3K delta from cell lysate (PI3K delta): captures (pulls down)
- capture (pulldown) of PI3K gamma from cell lysate (PI3K gamma): captures (pulls down)
- ATM bound to immobilized ligand, identified by mass spectrometry (ATM): identified
- DNA-PK bound to immobilized ligand, identified by mass spectrometry (DNA-PK): identified
- mTOR bound to immobilized ligand, identified by mass spectrometry (mTOR): identified
SMILES: Cc1nc(NC(=O)CCOCCOCCOCCOCCN)sc1-c1ccc(Cl)c(S(C)(=O)=O)c1.Cl [phenylthiazole ligand 1, 3-(2-{2-[2-(2-amino-ethoxy)-ethoxy]-ethoxy}-ethoxy)-N-[5-(4-chloro-3-methanesulfonyl-phenyl)-4-methyl-thiazol-2yl]-propionamide hydrochloride]
